System: SW 1271 complex spheroids, viability
Test: Anticancer human tumor SW 1271 cell line growth inhibition [LSD1];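 also: spheroids exposed to agents for 7 days before luminescence read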;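 as to viability, T/C: 100% = DMSO vehicle control viability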
Settings: for IC50: curve of first compound; for viability, T/C: stronger effect = lower value
Source text: Multicellular complex tumor spheroid response to LSD1 Inhibitor Iadademstat in combination with a variety of drugs and investigational agents in selected tumor cell lines
The current study was undertaken to assess response to LSD1 inhibitors in combination with standard-of-care drugs and investigational agents in solid tumor complex spheroid models as well as in the K-562 leukemia. Complex spheroids include a stromal component modeled by human endothelial cells (HUVEC) and fibroblasts modeled by human mesenchymal stem cells (MSCs). The concentration ranges selected for each drug and investigational agent were based upon clinically achievable concentrations if the clinical Cmax of the agent was known.
Compounds. The drugs and investigational agents used in this study are listed on Table 1. All of the agents used, including staurosporine (NSC755774) and gemcitabine (NSC613327), were obtained from the Developmental Therapeutics Program, NCI. FDA-approved anticancer drugs are available from the NCI at http://dtp.nci.nih.gov/branches/dscb/oncology_drugset_explanation.html. Drugs and investigational agents were >95% pure by proton nuclear magnetic resonance (NMR) and liquid chromatography/mass spectrometry (LC/MS). Stock solutions were prepared at 400x in DMSO, stored at -70 degrees C, and diluted in fresh medium prior to their use. The final concentration of DMSO in cell culture wells never exceeded 0.25% (v/v). The FDA-approved anticancer drug set is available from the Developmental Therapeutics Program at https://dtp.cancer.gov/organization/dscb/obtaining/available_plates.htm. All drugs and investigational agents were tested over a range starting from a high concentration at or near the clinical Cmax and decreasing in half-log increments. If the clinical Cmax for an agent had not been determined, the highest concentration tested was 10 microM.
Cell Lines. The patient-derived cancer cell (PDC) lines: 292921-168-R-J2-PDC, K24384-001-R-PDC, and 521955-158-R2-J5-PDC pancreatic carcinomas, 556581-035-R-J1 ovarian carcinoma, 324938-238-R-J1-PDC, 855422-203-R-J1-PDC and 883617-216-R-J1-PDC urothelial bladder carcinomas, 743489-274-T-PDC renal cell carcinoma, 138582-R-J1 Merkel cell tumor, K60290-347-R-J1 and K57222-313-R-J1-PDC glioblastomas, 653999-131-R-J2-PDC, LG0703-F948-PDC, and 349418-098-R-PDC non-small cell lung carcinomas, 885512-296-R-J2-PDC, 171881-019-R-J1-PDC breast carcinomas and 186277-243-T-J2-PDC and 233499-124-R-J2-PDC colon carcinomas were obtained from the NCI Patient-Derived Models Repository (PDMR, https://pdmr.cancer.gov). The established cell lines NCI/ADR-RES (RRID:CVCL_14520 and OVCAR-5 (RRID:CVCL_1628) ovarian carcinomas, 786-O (RRID:CVCL_1051) and A498 (RRID:CVCL_A498) renal cell carcinoma, NCI-H211 (ATCC, cat. CRL-5824; RRID:CVCL_1529), NCI-H196 (ATCC, cat. CRL-5823, RRID:CVCL_1509), SW 1271 (ATCC, cat. CRL-2177, RRID:CVCL_1716) and NCI-H1876 (ATCC, cat. CRL-5902, RRID:CVCL_1503) small cell lung carcinomas, MDA-MB-231 (RRID:CVCL_0062) and MDA-MB-468 (RRID:CVCL_0419)breast carcinomas (10-12). Pooled donor human umbilical vein endothelial cells (HUVEC, Lonza, cat. CC-2519) and human mesenchymal stem cells (hMSC, Lonza, cat. PT-2501) were purchased from Lonza (Walkersville, MD).
Cell Culture. All cells were maintained in an incubator at 37 degrees C and 5% CO2 with 95% humidity. The PDC lines were cultured according to standard operating procedures established by the NCI PDMR (https://pdmr.cancer.gov). Briefly all PDCs were thawed and cultured in Matrigel-coated flasks prepared with a working solution of 1X Ham's F-12 nutrient mix, without supplementation (Invitrogen, Waltham, MA, cat. 11765054), 100 U/mL penicillin-streptomycin (Invitrogen, cat. 15140122), and 2.5% Matrigel (Corning Inc., Corning, NY, cat. 354248) for the first three passages. […]

[1] = second compound 0.1 µM, first compound 0.00316 µM
[2] = second compound 0.1 µM, first compound 0.01 µM
[3] = second compound 0.1 µM, first compound 0.0316 µM
[4] = second compound 0.1 µM, first compound 0.1 µM
[5] = second compound 0.316 µM, first compound 0.00316 µM
[6] = second compound 0.316 µM, first compound 0.01 µM
[7] = second compound 0.316 µM, first compound 0.0316 µM
[8] = second compound 0.316 µM, first compound 0.1 µM
[9] = second compound 1 µM, first compound 0.00316 µM
[10] = second compound 1 µM, first compound 0.01 µM
[11] = second compound 1 µM, first compound 0.0316 µM
[12] = second compound 1 µM, first compound 0.1 µM
[13] = second compound 3.16 µM, first compound 0.00316 µM
[14] = second compound 3.16 µM, first compound 0.01 µM
[15] = second compound 3.16 µM, first compound 0.0316 µM
[16] = second compound 3.16 µM, first compound 0.1 µM
[17] = second compound 10 µM, first compound 0.00316 µM
[18] = second compound 10 µM, first compound 0.01 µM
[19] = second compound 10 µM, first compound 0.0316 µM
[20] = second compound 10 µM, first compound 0.1 µM

`CC[C@@]1(O)C(=O)OCc2c1cc1n(c2=O)Cc2cc3c(CN(C)C)c(O)ccc3nc2-1` + NC1CC1c1ccc(-c2cccc(O)c2)cc1 was tested, and the IC50 (second compound 0.1 µM) was 0.0526 µM, the IC50 (second compound 0.316 µM) was 0.0446 µM and the IC50 (second compound 1 µM) was 0.0278 µM. For the same compound, the IC50 (second compound 3.16 µM) was over 0.1 µM, the IC50 (second compound 10 µM) was 0.057 µM and the viability, T/C (second compound 0.1 µM, first compound 0.000316 µM) was 93.2%. The viability, T/C (second compound 0.1 µM, first compound 0.001 µM) was 81.3%, the viability, T/C [1] was 72.5% and the viability, T/C [2] was 63.6%. The viability, T/C [3] was 55.9%, the viability, T/C [4] was 43.5% and the viability, T/C (second compound 0.316 µM, first compound 0.000316 µM) was 83%. For the same compound, the viability, T/C (second compound 0.316 µM, first compound 0.001 µM) was 79.4%, the viability, T/C [5] was 77.4% and the viability, T/C [6] was 63.6%. For the same compound, the viability, T/C [7] was 54.7%, the viability, T/C [8] was 41.6% and the viability, T/C (second compound 1 µM, first compound 0.000316 µM) was 76.6%. The viability, T/C (second compound 1 µM, first compound 0.001 µM) was 79.5%, the viability, T/C [9] was 69.1% and the viability, T/C [10] was 53.4%. It also gave a viability, T/C [11] of 52.4%, a viability, T/C [12] of 46.5% and a viability, T/C (second compound 3.16 µM, first compound 0.000316 µM) of 84.9%. For the same compound, the viability, T/C (second compound 3.16 µM, first compound 0.001 µM) was 75.5%, the viability, T/C [13] was 66% and the viability, T/C [14] was 59.2%. The viability, T/C [15] was 54.3%, the viability, T/C [16] was 50.5% and the viability, T/C (second compound 10 µM, first compound 0.000316 µM) was 74.7%. For the same compound, the viability, T/C (second compound 10 µM, first compound 0.001 µM) was 78.9%, the viability, T/C [17] was 62.1% and the viability, T/C [18] was 58.2%. It also gave a viability, T/C [19] of 54.1% and a viability, T/C [20] of 47.3%.

`COc1cc(C2c3cc4c(cc3C(OC3OC5COC(C)OC5C(O)C3O)C3COC(=O)C23)OCO4)cc(OC)c1O` (stereo not given) + NC1CC1c1ccc(-c2cccc(O)c2)cc1 showed an IC50 (second compound 0.1 µM) of 1.39 µM, an IC50 (second compound 0.316 µM) of over 3 µM and an IC50 (second compound 1 µM) of 0.582 µM. The IC50 (second compound 3.16 µM) was over 3 µM, the IC50 (second compound 10 µM) was 0.289 µM and the viability, T/C (second compound 0.1 µM, first compound 0.00949 µM) was 84.4%. The viability, T/C (second compound 0.1 µM, first compound 0.03 µM) was 68.3%, the viability, T/C (second compound 0.1 µM, first compound 0.0949 µM) was 63.8% and the viability, T/C (second compound 0.1 µM, first compound 0.3 µM) was 53.7%. For the same compound, the viability, T/C (second compound 0.1 µM, first compound 0.949 µM) was 56.7%, the viability, T/C (second compound 0.1 µM, first compound 3 µM) was 44.4% and the viability, T/C (second compound 0.316 µM, first compound 0.00949 µM) was 70.7%. For the same compound, the viability, T/C (second compound 0.316 µM, first compound 0.03 µM) was 58.9%, the viability, T/C (second compound 0.316 µM, first compound 0.0949 µM) was 67.7% and the viability, T/C (second compound 0.316 µM, first compound 0.3 µM) was 52.8%. For the same compound, the viability, T/C (second compound 0.316 µM, first compound 0.949 µM) was 49.9%, the viability, T/C (second compound 0.316 µM, first compound 3 µM) was 54% and the viability, T/C (second compound 1 µM, first compound 0.00949 µM) was 79.2%. The viability, T/C (second compound 1 µM, first compound 0.03 µM) was 67.9%, the viability, T/C (second compound 1 µM, first compound 0.0949 µM) was 62.9% and the viability, T/C (second compound 1 µM, first compound 0.3 µM) was 57.1%. It also gave a viability, T/C (second compound 1 µM, first compound 0.949 µM) of 45.8%, a viability, T/C (second compound 1 µM, first compound 3 µM) of 38% and a viability, T/C (second compound 3.16 µM, first compound 0.00949 µM) of 64.9%. It also gave a viability, T/C (second compound 3.16 µM, first compound 0.03 µM) of 55.2%, a viability, T/C (second compound 3.16 µM, first compound 0.0949 µM) of 61.3% and a viability, T/C (second compound 3.16 µM, first compound 0.3 µM) of 48.2%. For the same compound, the viability, T/C (second compound 3.16 µM, first compound 0.949 µM) was 48.5%, the viability, T/C (second compound 3.16 µM, first compound 3 µM) was 59.9% and the viability, T/C (second compound 10 µM, first compound 0.00949 µM) was 61%. It also gave a viability, T/C (second compound 10 µM, first compound 0.03 µM) of 60.9%, a viability, T/C (second compound 10 µM, first compound 0.0949 µM) of 53.1% and a viability, T/C (second compound 10 µM, first compound 0.3 µM) of 51.5%. The viability, T/C (second compound 10 µM, first compound 0.949 µM) was 41.6% and the viability, T/C (second compound 10 µM, first compound 3 µM) was 46.5%.

For `Nc1ncn(C2CC(O)C(CO)O2)c(=O)n1` (stereo not given) + NC1CC1c1ccc(-c2cccc(O)c2)cc1, the IC50 (second compound 0.1 µM) was over 1 µM, the IC50 (second compound 0.316 µM) was over 1 µM and the IC50 (second compound 1 µM) was over 1 µM. For the same compound, the IC50 (second compound 3.16 µM) was over 1 µM, the IC50 (second compound 10 µM) was over 1 µM and the viability, T/C [1] was 96.2%. For the same compound, the viability, T/C [2] was 77.9%, the viability, T/C [3] was 84.7% and the viability, T/C [4] was 62.4%. It also gave a viability, T/C (second compound 0.1 µM, first compound 0.316 µM) of 66.7%, a viability, T/C (second compound 0.1 µM, first compound 1 µM) of 81% and a viability, T/C [5] of 68%. The viability, T/C [6] was 73.2%, the viability, T/C [7] was 75.2% and the viability, T/C [8] was 71.6%. It also gave a viability, T/C (second compound 0.316 µM, first compound 0.316 µM) of 70.5%, a viability, T/C (second compound 0.316 µM, first compound 1 µM) of 77.7% and a viability, T/C [9] of 76.4%. It also gave a viability, T/C [10] of 73.5%, a viability, T/C [11] of 81.8% and a viability, T/C [12] of 56.2%. The viability, T/C (second compound 1 µM, first compound 0.316 µM) was 69.5%, the viability, T/C (second compound 1 µM, first compound 1 µM) was 64.1% and the viability, T/C [13] was 69.5%. For the same compound, the viability, T/C [14] was 69.7%, the viability, T/C [15] was 69.8% and the viability, T/C [16] was 63.9%. For the same compound, the viability, T/C (second compound 3.16 µM, first compound 0.316 µM) was 52.7%, the viability, T/C (second compound 3.16 µM, first compound 1 µM) was 72.7% and the viability, T/C [17] was 69.5%. For the same compound, the viability, T/C [18] was 70.6%, the viability, T/C [19] was 61% and the viability, T/C [20] was 57.9%. It also gave a viability, T/C (second compound 10 µM, first compound 0.316 µM) of 57.7% and a viability, T/C (second compound 10 µM, first compound 1 µM) of 59%.
